The source of these data is patent US9481654B2, “Compositions and methods for inhibition of the JAK pathway” (Rigel Pharmaceuticals, Inc., priority 2006, dated 2016).

Molecules are shown by their SMILES.

In general, IC50 refers to the point on the concentration scale where inhibition reaches its midpoint. Low values mean higher potency, high ones lower potency.

For assay [1], the system named is IFNγ induced ICAM-1 (CD54) up-regulation in A549 lung epithelial cells (JAK/Stat pathway). As to the kind of experiment: A549 Epithelial Line Stimulated with IFNγ (ICAM-1 surface expression, flow cytometry). As to conditions: Table III Example 5. It is filed as cell-based, human. The gist of the method:
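A549 cells (20,000/well, adhered overnight) pre-treated with compound 1 h, then IFNγ 75 ng/mL for 24 h; compound 30 μM–14 nM in 5% FBS, 0.3% DMSO. Surface ICAM-1 stained with APC anti-CD54, geometric mean by flow cytometry; dose-response gives EC50.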
In general terms: A flow cytometer gives signals particle by particle.

Assay [2] deals with IFNγ induced ICAM-1 (CD54) up-regulation in U937 human monocytic cells (JAK/Stat pathway). As to the kind of experiment: U937 IFNγ ICAM1 FACS Assay. It counts as cell-based. As to conditions: Table III Example 6; 10 ng/mL IFNγ, 18-24 hours. Put shortly:
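Flow cytometry gave ICAM-1 (CD54) up-regulation as ICAM-APC geometric mean within the live-cell gate, alongside % viable cells. Human monocytic U937 cells received 3-fold serial compound dilutions for 30 min at 37 °C, followed by IFNγ stimulation lasting 18–24 h. Dose curves yielded EC50s.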

For the compound `CNS(=O)(=O)c1ccc(Nc2ncc(C)c(Nc3cccc(CNS(=O)(=O)C4CC4)c3)n2)cc1` [Compound I-207, N4-(3-cyclopropylsulfonylaminomethyl)phenyl-5-methyl-N2-(4-methylaminosulfonyl)phenyl-2,4-pyrimidinediamine], the IC50 in assay [1] was determined as 6.11 µM; in assay [2] it was 0.312 µM.

For `CCNS(=O)(=O)c1cccc(Nc2ncc(C)c(Nc3cccc(CNS(=O)(=O)C4CC4)c3)n2)c1` [Compound I-208, N4-(3-cyclopropylsulfonylaminomethyl)phenyl-N2-(3-ethylaminosulfonyl)phenyl-5-methyl-2,4-pyrimidinediamine], the IC50 is 1.3 µM in assay [1] and 0.257 µM in assay [2].

For the compound `COCCNS(=O)(=O)c1cc(Nc2ncc(C)c(Nc3cccc(CNS(=O)(=O)C4CC4)c3)n2)ccc1C` [Compound I-210, N4-(3-cyclopropylsulfonylaminomethyl)phenyl-N2-[3-(2-methoxyethyl)aminosulfonyl-4-methyl]phenyl-5-methyl-2,4-pyrimidinediamine], the IC50 amounted to 2.47 µM in assay [1] and 0.175 µM in assay [2].

As for `Cc1cnc(Nc2ccc(S(N)(=O)=O)cc2)nc1Nc1ccc2c(c1)CCN(S(=O)(=O)C1CC1)C2` [II-1, N2-(4-aminosulfonyl)phenyl-N4-[(N-cyclopropylsulfonyl)-1,2,3,4-tetrahydroisoquinolin-6-yl]-5-methyl-2,4-pyrimidinediamine], the IC50 was determined as 18.3 µM in assay [1] and 0.229 µM in assay [2].

In the case of `Cc1ccc(Nc2ncc(C)c(Nc3ccc4c(c3)CCN(S(=O)(=O)C3CC3)C4)n2)cc1S(N)(=O)=O` [II-3, N2-(3-aminosulfonyl-4-methyl)phenyl-N4-[(N-cyclopropylsulfonyl)-1,2,3,4-tetrahydroisoquinolin-6-yl]-5-methyl-2,4-pyrimidinediamine], the IC50 in assay [1] was 12.4 µM; in assay [2], 0.0879 µM.

`Cc1cnc(Nc2cccc(S(N)(=O)=O)c2)nc1Nc1ccc2c(c1)CN(S(=O)(=O)C1CC1)C2` [II-8, N2-(3-Aminosulfonyl-phenyl)-N4-[(2-cyclopropylsulfonyl)-isoindolin-5-yl]-5-methyl-2,4-pyrimidinediamine]: the IC50 worked out at 17.8 µM in assay [1] and 0.775 µM in assay [2].
